In PubChem BioAssay (NCI):
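48-hour exposure; five concentrations; linearly interpolated endpoints. At the TGI there is no net growth.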

How the values were obtained:
Assay in all cases: NCI-60 cell line screen, 48 h
RPMI-8226 leukemia = test system: RPMI-8226 leukemia
HL-60(TB) leukemia = test system: HL-60(TB) leukemia
HCC-2998 colon = test system: HCC-2998 colon
HCT-15 colon = test system: HCT-15 colon
OVCAR-5 ovarian = test system: OVCAR-5 ovarian
SNB-19 CNS = test system: SNB-19 CNS
NCI-H23 lung = test system: NCI-H23 lung
SF-295 CNS = test system: SF-295 CNS
KM12 colon = test system: KM12 colon
HOP-92 NSCLC = test system: HOP-92 NSCLC
HCT-116 colon = test system: HCT-116 colon
UO-31 renal = test system: UO-31 renal
SN12C renal = test system: SN12C renal
ACHN renal = test system: ACHN renal
EKVX NSCLC = test system: EKVX NSCLC
SNB-78 CNS = test system: SNB-78 CNS
OVCAR-8 ovarian = test system: OVCAR-8 ovarian
M19-MEL melanoma = test system: M19-MEL melanoma
UACC-257 melanoma = test system: UACC-257 melanoma
TK-10 renal = test system: TK-10 renal
A549 NSCLC = test system: A549 NSCLC
OVCAR-3 ovarian = test system: OVCAR-3 ovarian
MALME-3M melanoma = test system: MALME-3M melanoma
SK-MEL-28 melanoma = test system: SK-MEL-28 melanoma
SF-268 CNS = test system: SF-268 CNS
XF 498 CNS = test system: XF 498 CNS
SR leukemia = test system: SR leukemia
SF-539 CNS = test system: SF-539 CNS
786-0 renal = test system: 786-0 renal
DLD-1 colon = test system: DLD-1 colon
K-562 leukemia = test system: K-562 leukemia
U251 CNS = test system: U251 CNS
SNB-75 CNS = test system: SNB-75 CNS
KM20L2 colon = test system: KM20L2 colon
COLO 205 colon = test system: COLO 205 colon
IGROV1 ovarian = test system: IGROV1 ovarian
UACC-62 melanoma = test system: UACC-62 melanoma
DMS 273 small cell lung = test system: DMS 273 small cell lung
CCRF-CEM leukemia = test system: CCRF-CEM leukemia
HOP-18 NSCLC = test system: HOP-18 NSCLC
LOX IMVI melanoma = test system: LOX IMVI melanoma
A498 renal = test system: A498 renal
RXF 393 renal = test system: RXF 393 renal
SK-MEL-5 melanoma = test system: SK-MEL-5 melanoma
M14 melanoma = test system: M14 melanoma
OVCAR-4 ovarian = test system: OVCAR-4 ovarian
HOP-62 NSCLC = test system: HOP-62 NSCLC
MOLT-4 leukemia = test system: MOLT-4 leukemia
LXFL 529 NSCLC = test system: LXFL 529 NSCLC
SK-OV-3 ovarian = test system: SK-OV-3 ovarian
SK-MEL-2 melanoma = test system: SK-MEL-2 melanoma
HT29 colon = test system: HT29 colon
SW-620 colon = test system: SW-620 colon
NCI-H460 lung = test system: NCI-H460 lung
NCI-H522 lung = test system: NCI-H522 lung
NCI-H226 lung = test system: NCI-H226 lung
CAKI-1 renal = test system: CAKI-1 renal
DMS 114 small cell lung = test system: DMS 114 small cell lung

Compound: COC(=O)CC1C[C@H](C#N)N(C(=O)c2ccccc2)C[C@@H]1CC[N+](=O)[O-] (some centres undefined)
- TGI (RPMI-8226 leukemia): > 100 µM
- TGI (HL-60(TB) leukemia): > 100 µM
- TGI (HCC-2998 colon): > 100 µM
- TGI (HCT-15 colon): > 100 µM
- TGI (OVCAR-5 ovarian): > 100 µM
- TGI (SNB-19 CNS): > 100 µM
- TGI (NCI-H23 lung): > 100 µM
- TGI (SF-295 CNS): > 100 µM
- TGI (KM12 colon): > 100 µM
- TGI (HOP-92 NSCLC): > 100 µM
- TGI (HCT-116 colon): > 100 µM
- TGI (UO-31 renal): > 100 µM
- TGI (SN12C renal): > 100 µM
- TGI (ACHN renal): > 100 µM
- TGI (EKVX NSCLC): > 100 µM
- TGI (SNB-78 CNS): > 100 µM
- TGI (OVCAR-8 ovarian): > 100 µM
- TGI (M19-MEL melanoma): > 100 µM
- TGI (UACC-257 melanoma): > 100 µM
- TGI (TK-10 renal): > 100 µM
- TGI (A549 NSCLC): > 100 µM
- TGI (OVCAR-3 ovarian): > 100 µM
- TGI (MALME-3M melanoma): > 100 µM
- TGI (SK-MEL-28 melanoma): > 100 µM
- TGI (SF-268 CNS): > 100 µM
- TGI (XF 498 CNS): > 100 µM
- TGI (SR leukemia): > 100 µM
- TGI (SF-539 CNS): > 100 µM
- TGI (786-0 renal): > 100 µM
- TGI (DLD-1 colon): > 100 µM
- TGI (K-562 leukemia): > 100 µM
- TGI (U251 CNS): > 100 µM
- TGI (SNB-75 CNS): > 100 µM
- TGI (KM20L2 colon): > 100 µM
- TGI (COLO 205 colon): > 100 µM
- TGI (IGROV1 ovarian): > 100 µM
- TGI (UACC-62 melanoma): > 100 µM
- TGI (DMS 273 small cell lung): > 100 µM
- TGI (CCRF-CEM leukemia): > 100 µM
- TGI (HOP-18 NSCLC): > 100 µM
- TGI (LOX IMVI melanoma): > 100 µM
- TGI (A498 renal): > 100 µM
- TGI (RXF 393 renal): > 100 µM
- TGI (SK-MEL-5 melanoma): > 100 µM
- TGI (M14 melanoma): > 100 µM
- TGI (OVCAR-4 ovarian): > 100 µM
- TGI (HOP-62 NSCLC): > 100 µM
- TGI (MOLT-4 leukemia): > 100 µM
- TGI (LXFL 529 NSCLC): > 100 µM
- TGI (SK-OV-3 ovarian): > 100 µM
- TGI (SK-MEL-2 melanoma): 0.834 µM
- TGI (HT29 colon): > 100 µM
- TGI (SW-620 colon): > 100 µM
- TGI (NCI-H460 lung): > 100 µM

Compound: Cc1ccc(NCC(=O)N2CC(=O)Nc3ccccc32)c(C)c1
- TGI (RPMI-8226 leukemia): > 100 µM
- TGI (HL-60(TB) leukemia): > 100 µM
- TGI (HCC-2998 colon): > 100 µM
- TGI (HCT-15 colon): > 100 µM
- TGI (OVCAR-5 ovarian): > 100 µM
- TGI (SNB-19 CNS): > 100 µM
- TGI (NCI-H23 lung): > 100 µM
- TGI (SF-295 CNS): > 100 µM
- TGI (KM12 colon): > 100 µM
- TGI (HOP-92 NSCLC): > 100 µM
- TGI (HCT-116 colon): > 100 µM
- TGI (UO-31 renal): > 100 µM
- TGI (SN12C renal): > 100 µM
- TGI (ACHN renal): > 100 µM
- TGI (EKVX NSCLC): > 100 µM
- TGI (SNB-78 CNS): > 100 µM
- TGI (OVCAR-8 ovarian): > 100 µM
- TGI (M19-MEL melanoma): > 100 µM
- TGI (UACC-257 melanoma): > 100 µM
- TGI (TK-10 renal): > 100 µM
- TGI (A549 NSCLC): > 100 µM
- TGI (OVCAR-3 ovarian): > 100 µM
- TGI (MALME-3M melanoma): > 100 µM
- TGI (SK-MEL-28 melanoma): > 100 µM
- TGI (SF-268 CNS): > 100 µM
- TGI (XF 498 CNS): > 100 µM
- TGI (SR leukemia): > 100 µM
- TGI (SF-539 CNS): > 100 µM
- TGI (786-0 renal): > 100 µM
- TGI (DLD-1 colon): > 100 µM
- TGI (K-562 leukemia): > 100 µM
- TGI (U251 CNS): > 100 µM
- TGI (SNB-75 CNS): > 100 µM
- TGI (KM20L2 colon): > 100 µM
- TGI (COLO 205 colon): > 100 µM
- TGI (UACC-62 melanoma): > 100 µM
- TGI (NCI-H522 lung): > 100 µM
- TGI (DMS 273 small cell lung): > 100 µM
- TGI (CCRF-CEM leukemia): > 100 µM
- TGI (HOP-18 NSCLC): > 100 µM
- TGI (LOX IMVI melanoma): > 100 µM
- TGI (RXF 393 renal): > 100 µM
- TGI (SK-MEL-5 melanoma): > 100 µM
- TGI (M14 melanoma): > 100 µM
- TGI (NCI-H226 lung): > 100 µM
- TGI (CAKI-1 renal): > 100 µM
- TGI (OVCAR-4 ovarian): > 100 µM
- TGI (HOP-62 NSCLC): > 100 µM
- TGI (MOLT-4 leukemia): > 100 µM
- TGI (LXFL 529 NSCLC): > 100 µM
- TGI (SK-OV-3 ovarian): > 100 µM
- TGI (SK-MEL-2 melanoma): > 100 µM
- TGI (HT29 colon): > 100 µM
- TGI (SW-620 colon): > 100 µM
- TGI (NCI-H460 lung): > 100 µM

Compound: CCOC(=O)c1nn2c(nc1=O)sc1ccc3ccccc3c12
- TGI (RPMI-8226 leukemia): > 100 µM
- TGI (HL-60(TB) leukemia): > 100 µM
- TGI (HCC-2998 colon): > 100 µM
- TGI (HCT-15 colon): > 100 µM
- TGI (OVCAR-5 ovarian): > 100 µM
- TGI (SNB-19 CNS): > 100 µM
- TGI (NCI-H23 lung): > 100 µM
- TGI (SF-295 CNS): > 100 µM
- TGI (KM12 colon): > 100 µM
- TGI (HOP-92 NSCLC): > 100 µM
- TGI (HCT-116 colon): > 100 µM
- TGI (UO-31 renal): > 100 µM
- TGI (SN12C renal): > 100 µM
- TGI (ACHN renal): > 100 µM
- TGI (EKVX NSCLC): > 100 µM
- TGI (SNB-78 CNS): > 100 µM
- TGI (OVCAR-8 ovarian): > 100 µM
- TGI (M19-MEL melanoma): > 100 µM
- TGI (UACC-257 melanoma): > 100 µM
- TGI (TK-10 renal): > 100 µM
- TGI (A549 NSCLC): > 100 µM
- TGI (OVCAR-3 ovarian): > 100 µM
- TGI (MALME-3M melanoma): > 100 µM
- TGI (SK-MEL-28 melanoma): > 100 µM
- TGI (SF-268 CNS): > 100 µM
- TGI (SR leukemia): > 100 µM
- TGI (SF-539 CNS): > 100 µM
- TGI (786-0 renal): > 100 µM
- TGI (DLD-1 colon): > 100 µM
- TGI (K-562 leukemia): > 100 µM
- TGI (U251 CNS): > 100 µM
- TGI (SNB-75 CNS): > 100 µM
- TGI (KM20L2 colon): > 100 µM
- TGI (COLO 205 colon): > 100 µM
- TGI (IGROV1 ovarian): > 100 µM
- TGI (UACC-62 melanoma): > 100 µM
- TGI (DMS 273 small cell lung): > 100 µM
- TGI (CCRF-CEM leukemia): > 100 µM
- TGI (HOP-18 NSCLC): > 100 µM
- TGI (LOX IMVI melanoma): > 100 µM
- TGI (RXF 393 renal): > 100 µM
- TGI (SK-MEL-5 melanoma): > 100 µM
- TGI (M14 melanoma): > 100 µM
- TGI (NCI-H226 lung): > 100 µM
- TGI (CAKI-1 renal): > 100 µM
- TGI (DMS 114 small cell lung): > 100 µM
- TGI (OVCAR-4 ovarian): > 100 µM
- TGI (HOP-62 NSCLC): > 100 µM
- TGI (MOLT-4 leukemia): > 100 µM
- TGI (LXFL 529 NSCLC): > 100 µM
- TGI (SK-OV-3 ovarian): > 100 µM
- TGI (SK-MEL-2 melanoma): > 100 µM
- TGI (HT29 colon): > 100 µM
- TGI (SW-620 colon): > 100 µM
- TGI (NCI-H460 lung): > 100 µM
